Here are results for 27 compounds from US9487510B2, “Substituted heterocyclic acetamides as kappa opioid receptor (KOR) agonists” (Dr. Reddy's Laboratories Ltd., priority 2012, dated 2016).

The target in one data set is human KOR receptor (Homo sapiens, UniProt P41145). Nature of the data set: IP-One HTRF assay, potency of KOR agonists, dose-response in transiently transfected COS-7 cells. It is filed as cell-based.
human KOR receptor, sequence (P41145 whole entry): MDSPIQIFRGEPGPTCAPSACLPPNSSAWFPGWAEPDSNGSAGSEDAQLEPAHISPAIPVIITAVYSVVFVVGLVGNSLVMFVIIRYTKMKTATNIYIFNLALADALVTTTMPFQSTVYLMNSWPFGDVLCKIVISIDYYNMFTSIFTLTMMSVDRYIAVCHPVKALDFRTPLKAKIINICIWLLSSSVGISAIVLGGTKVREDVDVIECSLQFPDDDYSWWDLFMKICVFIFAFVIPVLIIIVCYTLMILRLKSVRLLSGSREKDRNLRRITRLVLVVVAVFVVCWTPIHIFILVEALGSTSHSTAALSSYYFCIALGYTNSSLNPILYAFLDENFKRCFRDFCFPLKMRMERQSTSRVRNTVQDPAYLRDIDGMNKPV

One may read the melting point as the temperature, or range, at which the solid turns liquid. `O=C(Cc1ccc2ccc(=O)[nH]c2c1)N[C@H](CN1CC[C@H](O)C1)c1ccccc1` displayed a melting point of 174 to 176 °C.
The compound `O=C1Cc2ccc(CC(=O)N[C@H](CN3CC[C@H](O)C3)c3ccccc3)cc2N1` gave a melting point of 207 to 209 °C.
Usually EC50 stands for the midpoint of the concentration-response curve. Higher therefore signals weaker potency. The compound `Cn1c(=O)oc2ccc(CC(=O)N[C@H](CN3CCC(O)C3)c3ccccc3)cc21` (stereo in doubt) [Example 45, N-((S)-2-((S)-3-hydroxypyrrolidin-1-yl)-1-phenylethyl)-2-(3-methyl-2-oxo-2,3-dihydrobenzo[d]oxazol-5-yl)acetamide] returned a melting point of 105 to 106 °C. At human KOR receptor, this compound had an EC50 of at most 50 nM.
The compound `O=C(Cc1ccc2[nH]c(=O)ccc2c1)N[C@H](CN1CCC(O)C1)c1ccccc1` (stereo in doubt) [Example 51, N-((S)-2-((R)-3-hydroxypyrrolidin-1-yl)-1-phenylethyl)-2-(2-oxo-1,2-dihydroquinolin-6-yl)acetamide] returned a melting point of 196 to 198 °C. In addition, the EC50 at human KOR receptor was in the range of 101 to 1000 nM.
The corresponding values for `CN(C(=O)Cc1ccc2oc(=O)[nH]c2c1)[C@H](CN1CCC(O)C1)c1cccc(OCC(=O)OC(C)(C)C)c1` (stereo in doubt) [Example 77, Tert-butyl 2-(3-((S)-2-((R)-3-hydroxypyrrolidin-1-yl)-1-(N-methyl-2-(2-oxo-2,3-dihydrobenzo[d]oxazol-5-yl)acetamido)ethyl)phenoxy)acetate] are 124 to 125 °C and at most 50 nM.
The corresponding values for `CN(C(=O)Cc1ccc2oc(=O)[nH]c2c1)C(CN1CCCC1)c1cccc(OCC(=O)O)c1` (stereo in doubt) [Example 90, (R)-2-(3-(1-(N-methyl-2-(2-oxo-2,3-dihydrobenzo[d]oxazol-5-yl)acetamido)-2-(pyrrolidin-1-yl)ethyl)phenoxy)acetic acid] are 227 to 229 °C and 51 to 100 nM.
Take `CN(C(=O)Cc1ccc2oc(=O)[nH]c2c1)[C@H](CN1CCC(O)C1)c1cccc(OCC(=O)O)c1.Cl` (stereo in doubt) [Example 96, 2-(3-((S)-2-((R)-3-hydroxypyrrolidin-1-yl)-1-(N-methyl-2-(2-oxo-2,3-dihydrobenzo[d]oxazol-5-yl)acetamido)ethyl)phenoxy)acetic acid]: the melting point was in the range of 95 to 96 °C. The same compound returned an EC50 on human KOR receptor of at most 50 nM.
Turning to `CN(C(=O)Cc1ccc2oc(=O)[nH]c2c1)[C@H](CN1CCC(O)C1)c1cccc(-c2nn[nH]n2)c1` (stereo in doubt) [Example 99, N-((S)-1-(3-(2H-tetrazol-5-yl)phenyl)-2-((S)-3-hydroxypyrrolidin-1-yl)ethyl)-N-methyl-2-(2-oxo-2,3-dihydrobenzo[d]oxazol-5-yl)acetamide], the melting point was in the range of 228 to 230 °C. Also, the EC50 at human KOR receptor is at most 50 nM.
In turn, `O=C(Cc1ccc2oc(=O)n(Cc3cccc(-c4nn[nH]n4)c3)c2c1)N[C@H](CN1CCC(O)C1)c1ccccc1` (stereo in doubt) [Example 102, 2-(3-(3-(2H-tetrazol-5-yl)benzyl)-2-oxo-2,3-dihydrobenzo[d]oxazol-5-yl)-N-((S)-2-((S)-3-hydroxypyrrolidin-1-yl)-1-phenylethyl)acetamide] registered a melting point of 235 to 237 °C. Moreover, the EC50 at human KOR receptor was at most 50 nM.
The corresponding values for `CN(C(=O)Cc1ccc2oc(=O)n(Cc3cccc(-c4nn[nH]n4)c3)c2c1)[C@H](CN1CCC(O)C1)c1ccccc1` (stereo in doubt) [Example 103, 2-(3-(3-(2H-tetrazol-5-yl)benzyl)-2-oxo-2,3-dihydrobenzo[d]oxazol-5-yl)-N-((S)-2-((S)-3-hydroxypyrrolidin-1-yl)-1-phenylethyl)-N-methylacetamide] are 123 to 125 °C and at most 50 nM.
With `CN(C(=O)Cc1ccc2oc(=O)n(Cc3ccc(-c4nnn[nH]4)cc3)c2c1)[C@H](CN1CCC(O)C1)c1ccccc1` (stereo in doubt) [Example 104, 2-(3-(4-(1H-tetrazol-5-yl)benzyl)-2-oxo-2,3-dihydrobenzo[d]oxazol-5-yl)-N-((S)-2-((S)-3-hydroxypyrrolidin-1-yl)-1-phenylethyl)-N-methylacetamide], the melting point was 218 to 220 °C. Besides, the EC50 on human KOR receptor is at most 50 nM.
Compound `CN(C(=O)Cc1ccc2oc(=O)n(C)c2c1)[C@H](CN1CCC(O)C1)c1cccc(-c2nn[nH]n2)c1` (stereo in doubt) [Example 107, N-((S)-1-(3-(2H-tetrazol-5-yl)phenyl)-2-((S)-3-hydroxypyrrolidin-1-yl)ethyl)-N-methyl-2-(3-methyl-2-oxo-2,3-dihydrobenzo[d]oxazol-5-yl)acetamide] yielded a melting point of 130 to 132 °C. Further, the EC50 at human KOR receptor is at most 50 nM.
The matching figures for `CN1C(=O)Cc2ccc(CC(=O)N(C)[C@H](CN3CCC(O)C3)c3cccc(-c4nn[nH]n4)c3)cc21` (stereo in doubt) [Example 111, N-((S)-1-(3-(2H-tetrazol-5-yl)phenyl)-2-((S)-3-hydroxypyrrolidin-1-yl)ethyl)-N-methyl-2-(1-methyl-2-oxoindolin-6-yl)acetamide]: 198 to 200 °C and at most 50 nM.
On to `CN(C(=O)Cc1ccc2c(c1)NC(=O)C2)[C@H](CN1CC[C@H](O)C1)c1ccccc1` [Example 1, N-((S)-2-((S)-3-hydroxypyrrolidin-1-yl)-1-phenylethyl)-N-methyl-2-(2-oxoindolin-6-yl)acetamide], for which the melting point was 166 to 168 °C. Moreover, on human KOR receptor, the EC50 is 51 to 100 nM.
As to `O=C(Cc1ccc2oc(=O)n(Cc3ccccc3)c2c1)N[C@H](CN1CCCC1)c1cccc(O)c1` [Example 20, (S)-2-(3-benzyl-2-oxo-2,3-dihydrobenzo [d]oxazol-5-yl)-N-(1-(3-hydroxyphenyl)-2-(pyrrolidin-1-yl)ethyl)acetamide], the melting point lay in the range of 104 to 106 °C. Further, the EC50 at human KOR receptor is at most 50 nM.
In the case of `CN(C(=O)Cc1ccc2c(c1)NC(=O)C2)[C@H](CN1CC[C@H](O)C1)c1cccc(-c2cscn2)c1` [Example 217, N-((S)-2-((S)-3-hydroxypyrrolidin-1-yl)-1-(3-(thiazol-4-yl)phenyl)ethyl)-N-methyl-2-(2-oxoindolin-6-yl)acetamide], the EC50 on human KOR receptor is at most 50 nM.
The same measure, in the same setting: the value for `Cc1csc(-c2cccc([C@@H](CN3CC[C@H](O)C3)N(C)C(=O)Cc3ccc4c(c3)NC(=O)C4)c2)n1` [Example 218, N-((S)-2-((S)-3-hydroxypyrrolidin-1-yl)-1-(3-(4-methylthiazol-2-yl)phenyl)ethyl)-N-methyl-2-(2-oxoindolin-6-yl)acetamide] was at most 50 nM; that for `Cc1ncc(-c2cccc([C@@H](CN3CC[C@H](O)C3)N(C)C(=O)Cc3ccc4c(c3)NC(=O)C4)c2)s1` [Example 219, N-((S)-2-((S)-3-hydroxypyrrolidin-1-yl)-1-(3-(2-methylthiazol-5-yl)phenyl)ethyl)-N-methyl-2-(2-oxoindolin-6-yl)acetamide] was at most 50 nM.
For the compound `Cc1nc(-c2cccc([C@@H](CN3CC[C@H](O)C3)N(C)C(=O)Cc3ccc4c(c3)NC(=O)C4)c2)cs1` [Example 220, N-((S)-2-((S)-3-hydroxypyrrolidin-1-yl)-1-(3-(2-methylthiazol-4-yl)phenyl)ethyl)-N-methyl-2-(2-oxoindolin-6-yl)acetamide], the EC50 at human KOR receptor is at most 50 nM.
Compound `Cc1nnc(-c2cccc([C@@H](CN3CC[C@H](O)C3)N(C)C(=O)Cc3ccc4c(c3)NC(=O)C4)c2)s1` [Example 221, N-((S)-2-((S)-3-hydroxypyrrolidin-1-yl)-1-(3-(5-methyl-1,3,4-thiadiazol-2-yl)phenyl)ethyl)-N-methyl-2-(2-oxoindolin-6-yl)acetamide] returned an EC50 at human KOR receptor of at most 50 nM.
On the same count and under the same terms, the value for `CN(C(=O)Cc1ccc2c(c1)NC(=O)C2)[C@H](CN1CC[C@H](O)C1)c1cccc(-c2cncn2C)c1` [Example 222, N-((S)-2-((S)-3-hydroxypyrrolidin-1-yl)-1-(3-(1-methyl-1H-imidazol-5-yl)phenyl)ethyl)-N-methyl-2-(2-oxoindolin-6-yl)acetamide] was at most 50 nM.
For `CN(C(=O)Cc1ccc2c(c1)NC(=O)C2)[C@H](CN1CC[C@H](O)C1)c1cccc(-c2nnco2)c1` [Example 223, N-((S)-1-(3-(1,3,4-oxadiazol-2-yl)phenyl)-2-((S)-3-hydroxypyrrolidin-1-yl)ethyl)-N-methyl-2-(2-oxoindolin-6-yl)acetamide], on human KOR receptor, the EC50 is at most 50 nM.
Still for that read-out and setting: the value for `Cc1nnc(-c2cccc([C@@H](CN3CC[C@H](O)C3)N(C)C(=O)Cc3ccc4c(c3)NC(=O)C4)c2)o1` [Example 224, N-((S)-2-((S)-3-hydroxypyrrolidin-1-yl)-1-(3-(5-methyl-1,3,4-oxadiazol-2-yl)phenyl)ethyl)-N-methyl-2-(2-oxoindolin-6-yl)acetamide] was at most 50 nM; that for `CN(C(=O)Cc1ccc2c(c1)NC(=O)C2)[C@H](CN1CC[C@H](O)C1)c1cccc(-c2cn(C)cn2)c1` [Example 225, N-((S)-2-((S)-3-hydroxypyrrolidin-1-yl)-1-(3-(1-methyl-1H-imidazol-4-yl)phenyl)ethyl)-N-methyl-2-(2-oxoindolin-6-yl)acetamide] was at most 50 nM; that for `CN(C(=O)Cc1ccc2c(c1)NC(=O)C2)[C@H](CN1CC[C@H](O)C1)c1cccc(-c2nccn2CC2CC2)c1` [Example 226, N-((S)-1-(3-(1-(cyclopropylmethyl)-1H-imidazol-2-yl)phenyl)-2-((S)-3-hydroxypyrrolidin-1-yl)ethyl)-N-methyl-2-(2-oxoindolin-6-yl)acetamide] was at most 50 nM.
For `Cc1noc(-c2cccc([C@@H](CN3CC[C@H](O)C3)N(C)C(=O)Cc3ccc4c(c3)NC(=O)C4)c2)n1` [Example 227, N-((S)-2-((S)-3-hydroxypyrrolidin-1-yl)-1-(3-(3-methyl-1,2,4-oxadiazol-5-yl)phenyl)ethyl)-N-methyl-2-(2-oxoindolin-6-yl)acetamide], the EC50 on human KOR receptor was at most 50 nM.
With `CN(C(=O)Cc1ccc2sc(=O)[nH]c2c1)[C@H](CN1CC[C@H](O)C1)c1cccc(C(=O)NCC(F)(F)F)c1` [Example 228, 3-((S)-2-((S)-3-hydroxypyrrolidin-1-yl)-1-(N-methyl-2-(2-oxo-2,3-dihydrobenzo[d]thiazol-5-yl)acetamido)ethyl)-N-(2,2,2-trifluoroethyl)benzamide], at human KOR receptor, the EC50 was at most 50 nM.
